Source: article PMC8286840, “Identifying SARS-CoV-2 antiviral compounds by screening for small molecule inhibitors of Nsp3 papain-like protease” (Biochemical Journal, 2021)
Where a name gives a salt, the structure may show the parent alone. Read-outs that look alike come from different tables or passages of the source.

Assays:
[1] = biological target: T1, SARS-CoV-2 PLpro (nsp3 1564–1878) (Severe acute respiratory syndrome coronavirus 2, UniProt P0DTD1); assay: biochemical; set-up: FRET-quenched peptide (Pro3) cleavage by PLpro, 10 min pre-incubation, slope over 20 min, normalised to no-compound control; conditions: high concentration screen, read-out: % of control remaining
[2] = biological target: T1, SARS-CoV-2 PLpro (nsp3 1564–1878); assay: biochemical; set-up: FRET-quenched peptide (Pro3) cleavage by PLpro, 10 min pre-incubation, slope over 20 min, normalised to no-compound control; conditions: low concentration screen, read-out: % of control remaining

SMILES: CC(=O)OC[C@@]1(O)CC23CC[C@@H]4c5ccoc5C=C[C@@]4(C)[C@@H]2CC[C@@H]1C3 [Kahweol Acetate]
- remaining activity at 3.75 µM ([1]; Well no.=3489): 103%
- remaining activity at 1.25 µM ([2]; Well no.=3489): 102%

SMILES: C=C(C)[C@H]1CN[C@H](C(=O)O)[C@H]1CC(=O)O [Kainic acid]
- remaining activity at 3.75 µM ([1]; Well no.=829): 105%
- remaining activity at 3.75 µM ([1]; Well no.=3369): 104%
- remaining activity at 3.75 µM ([1]; Well no.=7792): 102%
- remaining activity at 1.25 µM ([2]; Well no.=829): 106%
- remaining activity at 1.25 µM ([2]; Well no.=7792): 105%

SMILES: NC[C@H]1O[C@H](O[C@H]2[C@H](O)[C@@H](O[C@H]3O[C@H](CO)[C@@H](O)[C@H](N)[C@H]3O)[C@H](N)C[C@@H]2N)[C@H](O)[C@@H](O)[C@@H]1O [Kanamycin sulfate]
- remaining activity at 3.75 µM ([1]; Well no.=3428): 96.2%
- remaining activity at 1.25 µM ([2]; Well no.=3428): 97.3%

SMILES: CCN1C[C@]2(C)CC[C@H](O)[C@]34C1[C@@H](C[C@H]23)[C@@]1(O)C[C@H](OC)[C@H]2C[C@@H]4[C@@H]1[C@H]2O [Karakoline]
- remaining activity at 3.75 µM ([1]; Well no.=831): 99.5%
- remaining activity at 3.75 µM ([1]; Well no.=3157): 103%
- remaining activity at 1.25 µM ([2]; Well no.=831): 102%
- remaining activity at 1.25 µM ([2]; Well no.=3157): 111%

SMILES: O=C(O)c1ccccc1C(=O)Nc1ccc(-c2ccccc2)cc1 [Kartogenin]
- remaining activity at 3.75 µM ([1]; Well no.=5620): 96.3%
- remaining activity at 1.25 µM ([2]; Well no.=5620): 91.3%

SMILES: O=C1Cc2c([nH]c3ccc(Br)cc23)-c2ccccc2N1 [Kenpaullone]
- remaining activity at 3.75 µM ([1]; Well no.=783): 102%
- remaining activity at 3.75 µM ([1]; Well no.=2554): 100%
- remaining activity at 1.25 µM ([2]; Well no.=783): 102%
- remaining activity at 1.25 µM ([2]; Well no.=2554): 104%

SMILES: COc1cc(Nc2ncc3ccn(-c4cccc(CCC#N)c4)c3n2)cc(OC)c1OC [Keratinocyte Differentiation Inducer]
- remaining activity at 3.75 µM ([1]; Well no.=2379): 103%
- remaining activity at 1.25 µM ([2]; Well no.=2379): 101%

SMILES: O=C(c1ccc(F)cc1)C1CCN(CCn2c(=O)[nH]c3ccccc3c2=O)CC1 [Ketanserin (tartrate)]
- remaining activity at 3.75 µM ([1]; Well no.=6519): 103%
- remaining activity at 1.25 µM ([2]; Well no.=6519): 100%

SMILES: O=C(c1ccc(F)cc1)C1CCN(CCn2c(=O)[nH]c3ccccc3c2=O)CC1 [Ketanserin tartrate]
- remaining activity at 3.75 µM ([1]; Well no.=1515): 95.4%
- remaining activity at 1.25 µM ([2]; Well no.=1515): 93.9%

SMILES: O=C(c1ccc(F)cc1)C1CCN(CCn2c(=O)[nH]c3ccccc3c2=O)CC1 [Ketanserin]
- remaining activity at 3.75 µM ([1]; Well no.=2106): 95.2%
- remaining activity at 3.75 µM ([1]; Well no.=6859): 99%
- remaining activity at 1.25 µM ([2]; Well no.=2106): 94.1%
- remaining activity at 1.25 µM ([2]; Well no.=6859): 101%

SMILES: CC1(C)C2CCC1(C(=O)O)C(=O)C2 (centres unmarked) [Ketopinic acid]
- remaining activity at 3.75 µM ([1]; Well no.=3353): 96.9%
- remaining activity at 1.25 µM ([2]; Well no.=3353): 92.9%

SMILES: O=C(c1ccccc1)c1ccc2n1CCC2C(=O)O (centres unmarked) [Ketorolac tris salt]
- remaining activity at 3.75 µM ([1]; Well no.=925): 103%
- remaining activity at 1.25 µM ([2]; Well no.=925): 108%

SMILES: CN1CCC(=C2c3ccccc3CC(=O)c3sccc32)CC1 [Ketotifen (fumarate)]
- remaining activity at 3.75 µM ([1]; Well no.=7421): 97%
- remaining activity at 1.25 µM ([2]; Well no.=7421): 100%

SMILES: CN1CCC(=C2c3ccccc3CC(=O)c3sccc32)CC1 [Ketotifen fumarate]
- remaining activity at 3.75 µM ([1]; Well no.=1069): 95.3%
- remaining activity at 1.25 µM ([2]; Well no.=1069): 101%

SMILES: CN1CCC(=C2c3ccccc3CC(=O)c3sccc32)CC1 [Ketotifen]
- remaining activity at 3.75 µM ([1]; Well no.=2056): 109%
- remaining activity at 1.25 µM ([2]; Well no.=2056): 108%

SMILES: N#CCCCSC(=N)N [Kevetrin (hydrochloride)]
- remaining activity at 3.75 µM ([1]; Well no.=6250): 103%
- remaining activity at 1.25 µM ([2]; Well no.=6250): 103%

SMILES: COc1c2occc2c(OC)c2c(=O)cc(C)oc12 [Khellin]
- remaining activity at 3.75 µM ([1]; Well no.=3436): 94.1%
- remaining activity at 1.25 µM ([2]; Well no.=3436): 92.2%

SMILES: COC(=O)CCSCc1ccc(-c2onc(C)c2NC(=O)OC(C)c2ccccc2Cl)cc1 (centres unmarked) [Ki16198]
- remaining activity at 3.75 µM ([1]; Well no.=5219): 96.1%
- remaining activity at 1.25 µM ([2]; Well no.=5219): 89.4%

SMILES: Cc1noc(-c2ccc(CSCCC(=O)O)cc2)c1NC(=O)OC(C)c1ccccc1Cl (centres unmarked) [Ki16425]
- remaining activity at 3.75 µM ([1]; Well no.=7955): 96.5%
- remaining activity at 1.25 µM ([2]; Well no.=7955): 95.2%

SMILES: COc1cc(Oc2ccnc3cc(OC)c(OC)cc23)ccc1NC(=O)NC(C)c1nccs1 (centres unmarked) [Ki20227]
- remaining activity at 3.75 µM ([1]; Well no.=2935): 102%
- remaining activity at 1.25 µM ([2]; Well no.=2935): 98.2%

SMILES: Cc1cc(/C=N/NC(=O)c2cc(Br)c(O)c(Br)c2)c(C)n1-c1cccc([N+](=O)[O-])c1 [Kinesore]
- remaining activity at 3.75 µM ([1]; Well no.=7784): 91.7%
- remaining activity at 1.25 µM ([2]; Well no.=7784): 93.8%

SMILES: OC[C@H]1O[C@@H](n2cnc3c(NCc4ccco4)ncnc32)[C@H](O)[C@@H]1O [Kinetin riboside]
- remaining activity at 3.75 µM ([1]; Well no.=6632): 96.7%
- remaining activity at 1.25 µM ([2]; Well no.=6632): 91.8%

SMILES: c1coc(CNc2ncnc3[nH]cnc23)c1 [Kinetin]
- remaining activity at 3.75 µM ([1]; Well no.=3358): 97.3%
- remaining activity at 1.25 µM ([2]; Well no.=3358): 95.6%

SMILES: Cc1ccc(NC(=S)NNc2c([N+](=O)[O-])cc(C(F)(F)F)cc2[N+](=O)[O-])cc1Cl [Kobe0065]
- remaining activity at 3.75 µM ([1]; Well no.=7436): 106%
- remaining activity at 1.25 µM ([2]; Well no.=7436): 103%

SMILES: O=C(O)c1cc(=O)c2ccccc2[nH]1 [Kynurenic acid]
- remaining activity at 3.75 µM ([1]; Well no.=1117): 99.5%
- remaining activity at 3.75 µM ([1]; Well no.=7403): 99.4%
- remaining activity at 1.25 µM ([2]; Well no.=1117): 97.8%
- remaining activity at 1.25 µM ([2]; Well no.=7403): 99.6%

SMILES: N[C@@H](CC(=O)O)C(=O)O [L -Aspartic acid hemimagnesium salt hydrate]
- remaining activity at 3.75 µM ([1]; Well no.=5897): 105%
- remaining activity at 1.25 µM ([2]; Well no.=5897): 103%

SMILES: NC[C@@H](O)c1ccc(O)c(O)c1 [L(-)-Norepinephrine bitartrate]
- remaining activity at 3.75 µM ([1]; Well no.=58): 99.2%
- remaining activity at 1.25 µM ([2]; Well no.=58): 102%

SMILES: N[C@@H](CCCC(=O)O)C(=O)O [L-2-aminoadipic acid]
- remaining activity at 3.75 µM ([1]; Well no.=52): 97.4%
- remaining activity at 1.25 µM ([2]; Well no.=52): 97.1%

SMILES: COC(=O)[C@@H](N)Cc1ccc(O)c(O)c1 [L-3,4-Dihydroxyphenylalanine methyl ester hydrochloride]
- remaining activity at 3.75 µM ([1]; Well no.=541): 103%
- remaining activity at 1.25 µM ([2]; Well no.=541): 103%

SMILES: N[C@@H](Cc1ccc(O)c(O)c1)C(=O)O [L-3,4-Dihydroxyphenylalanine]
- remaining activity at 3.75 µM ([1]; Well no.=634): 105%
- remaining activity at 1.25 µM ([2]; Well no.=634): 101%

SMILES: N[C@@H](Cc1c[nH]c2ccc(O)cc12)C(=O)O [L-5-Hydroxytryptophan]
- remaining activity at 3.75 µM ([1]; Well no.=7409): 104%
- remaining activity at 1.25 µM ([2]; Well no.=7409): 99.9%

SMILES: c1ccc(CN2CCC3(CCCc4ccccc43)CC2)cc1 [L-687,384 hydrochloride]
- remaining activity at 3.75 µM ([1]; Well no.=1123): 97.2%
- remaining activity at 1.25 µM ([2]; Well no.=1123): 96.4%

SMILES: Ic1ccccc1CN[C@@H]1C2CCN(CC2)[C@@H]1C(c1ccccc1)c1ccccc1 [L-703,606 oxalate]
- remaining activity at 3.75 µM ([1]; Well no.=964): 96%
- remaining activity at 1.25 µM ([2]; Well no.=964): 96.7%
